From patent US4315009A, “Antisecretory guanidine derivatives and pharmaceutical compositions containing them” (Imperial Chemical Industries Limited, priority 1978, dated 1982)

Assay: overt toxicity in mice after intraperitoneal dosing
Format: in vivo
Settings: intraperitoneally, 50 mg./kg.

With `C/N=C(\NC#N)Nc1cccc(-c2csc(N=C(N)N)n2)c1` [Example 2, 2-guanidino-4-[3-(2-cyano-3-methylguanidino)phenyl]thiazole] the overt toxicity was “no overt toxicity”.
